According to ChEMBL document CHEMBL3044594, “Comparison of the inhibitory action of synthetic capsaicin analogues with various NADH-ubiquinone oxidoreductases” (Biochim Biophys Acta, 1996):
Activity calls are given as the source filed them. No cut-off for these calls is given here.

Assays:
Solanum tuberosum [1] = assay: Inhibition of Solanum tuberosum (potato) submitochondrial particle NDH1 assessed as deaminoNADH-DB reductase activity
Solanum tuberosum [2] = assay: Inhibition of Solanum tuberosum (potato) inner mitochondrial membrane NDH2 assessed as […] reductase activity at 100 uM relative to control
Escherichia coli = assay: Inhibition of Escherichia coli GR19N NDH2 assessed as […] reductase activity at 100 uM relative to control

| Compound | pI50 (Solanum tuberosum [1]) | inhibition (Solanum tuberosum [2]) | inhibition (Escherichia coli) |
| --- | --- | --- | --- |
| COc1ccc(CNC(=O)c2ccccc2)cc1OC | inactive | inactive | inactive |
| CCCCc1ccc(C(=O)NCc2ccc(OC)c(OC)c2)cc1 | inactive | inactive | inactive |
| CCCCCCCCCCCC(=O)N(C)Cc1cc(OC)ccc1OC |  |  | 30% |
| C/C=C(\C)[C@H](O)[C@H](C)/C=C(C)/C=C/C/C(C)=C/Cc1nc(OC)c(OC)c(O)c1C |  |  | 50% |
| CCCCCCCCCCCCNCc1ccc(OC)c(OC)c1 |  |  | inactive |
| COc1ccc(CNC(=O)c2ccc(-c3ccccc3)cc2)cc1OC |  | inactive | inactive |
| CCCCCCCCCCOc1ccc(C(=O)NCc2ccc(OC)c(OC)c2)cc1 | inactive | inactive | 70% |
| COc1ccc(CNC(=O)c2ccc(Oc3ccc(C(C)(C)C)cc3)cc2)cc1OC |  | 100% | 60% |
| CCCCCCCCCCCC(=O)N1CCc2cc(OC)c(OC)cc2C1 |  |  | inactive |
| CCCCCCCCCCCC(=O)NCc1ccc(C)c(C)c1 |  | inactive | 60% |
| CCCCCCCOc1ccc(C(=O)NCc2ccc(OC)c(OC)c2)c(O)c1 |  | 30% | 90% |
| COc1ccc(CNC(=O)c2ccc(OCc3ccccc3)cc2)cc1OC | inactive | inactive | inactive |
| COc1cc(CNC(=O)CCCC/C=C/C(C)C)ccc1O |  | inactive | 20% |
| COc1ccc(CNC(=O)c2ccc(Oc3ccc(Cc4ccccc4)cc3)cc2)cc1OC |  | inactive | 50% |
| CCCCc1ccc(Oc2ccc(C(=O)NCc3ccc(OC)c(OC)c3)cc2)cc1 |  | inactive | 60% |
| COc1ccc(OC)c(CNC(=O)c2ccc(Oc3ccc(C(C)(C)C)cc3)cc2)c1 |  |  | 60% |
| CCCCCCCCCCCC(=O)NCc1ccc(OC)c(OC)c1 |  |  | inactive |
| Cc1nn(C)c(Oc2ccccc2)c1/C=N/OCc1ccc(C(=O)OC(C)(C)C)cc1 |  |  | 60% |
| CCCCCCCCCCCC(=O)NCc1ccc2c(c1)OCO2 |  | inactive | 60% |
| CCCCCCCCc1ccc(C(=O)N(C)Cc2ccc(OC)c(OC)c2)cc1 |  |  | 60% |
| COc1ccc(CNC(=O)c2ccccc2C)cc1OC | inactive | inactive | inactive |
| COc1ccc(CNC(=O)c2ccc3ccccc3c2)cc1OC |  | inactive | inactive |
| CCCCCCCCCCCC(=O)NCc1cc(OC)cc(OC)c1 |  | inactive | inactive |
| CCCCCCCCCCCC(=O)NCc1ccccc1OC |  | inactive | inactive |
| CCCCCCCCCCCC(=O)NCc1ccc(O)c(OC)c1 | inactive | inactive | 70% |
| CCCCCCCCCCCNC(=O)Cc1ccc(OC)c(OC)c1 |  | inactive | inactive |
| COc1ccc(CNCc2ccc(Oc3ccc(C(C)(C)C)cc3)cc2)cc1OC |  | inactive | 60% |

| Compound | pI50 (Solanum tuberosum [1]) | inhibition (Solanum tuberosum [2]) | inhibition (Escherichia coli) |
| --- | --- | --- | --- |
| CCCCCCCCCCC(=O)NCCc1ccc(OC)c(OC)c1 |  | inactive | inactive |
| CCCCCCCCCCCC(=O)N(C)Cc1ccc(OC)c(OC)c1 |  |  | inactive |
| CCCCCCCCCCCC(=O)NCc1ccc(OC)cc1 |  | 100% | 80% |
| CCCCCCCCCCCC(=O)NCc1ccc(OC)cc1OC |  | inactive | inactive |
| CCCCCCCCCCCC(=O)NCc1cc(OC)ccc1OC |  | 100% | inactive |
| C=C(C)[C@H]1Cc2c(ccc3c2O[C@@H]2COc4cc(OC)c(OC)cc4[C@@H]2C3=O)O1 |  | inactive | 70% |
| CCCCCCCCCCCC(=O)NCc1cccc(OC)c1 |  | 60% | inactive |
| COc1ccc(CNC(=O)c2ccc(Oc3ccccc3C)cc2)cc1OC | inactive |  | 90% |
| CCCCCCCOc1ccc(C(=O)NCc2ccc(OC)c(OC)c2)cc1 |  | inactive | 60% |
| COc1ccc(CNC(=O)c2ccc(C(C)(C)C)cc2)cc1OC | inactive | inactive | inactive |
| CCCCCCCCc1ccc(C(=O)NCc2ccc(OC)c(OC)c2)cc1 |  | inactive | 50% |
| CCCCCCCCCC(=O)NCCCc1ccc(OC)c(OC)c1 | inactive | inactive | 40% |
| COc1ccc(CNC(=O)c2ccc(Oc3ccc(C)cc3)cc2)cc1OC | inactive | inactive | inactive |
| CCCCCCCCCCCC(=O)NCc1cccc(OC)c1OC |  | inactive | inactive |
| CCCCCCCCCCNC(=O)CCc1ccc(OC)c(OC)c1 |  | inactive | 40% |
| CCC(C)(C)c1ccc(Oc2ccc(C(=O)NCc3ccc(OC)c(OC)c3)cc2)cc1 |  |  | 60% |
| CCCCCCCOc1cccc(C(=O)NCc2ccc(OC)c(OC)c2)c1 |  | inactive | 60% |
| CCCCCCCCCCCC(=O)NCc1cc(C)ccc1C |  | inactive | 60% |
| COc1ccc(CNC(=O)c2cccc3ccccc23)cc1OC |  | inactive | inactive |
| CCCCCCCCCCCCC(=O)Nc1ccc(OC)c(OC)c1 |  | inactive | inactive |
| COc1ccc(CN(C)C(=O)c2ccc(Oc3ccc(C(C)(C)C)cc3)cc2)cc1OC |  | inactive | 40% |
| COc1ccc(CNC(=O)c2ccc(C)cc2)cc1OC |  | inactive | inactive |
| CCCCCCCCCCCCNC(=O)c1ccc(OC)c(OC)c1 |  | inactive | inactive |
| CCCCCCCCCCCC(=O)NCc1ccccc1 |  | inactive | inactive |
| CCCCCCCCc1ccc(C(=O)NCc2cc(OC)ccc2OC)cc1 |  |  | 60% |
| CCCCCCCCCCCC(=O)NCc1ccc(Cl)c(Cl)c1 |  | inactive | 70% |
